In PubChem BioAssay AID248 (DTP/NCI, 2004):
Where “and” joins values, the source holds several entries; their conditions need not be identical. Equal entries are not always repeated. Toxic doses and inconclusive results are not listed. No stated cut-off is given here; in the data, active means T/C of 150% or more; inactive means T/C below 125%.

Test system: L1210 leukemia ip in BDF1 mice, survival T/C
Assay: NCI In Vivo Anticancer Drug Screen. Data for tumor model L1210 Leukemia (intraperitoneal) in B6D2F1 (BDF1) mice
Settings: endpoint: mean survival time, higher = longer survival
Procedure, shortened: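 Mice bearing the transplanted tumor received compound or vehicle. Survival of the treated group was divided by that of the vehicle-treated control group to give the ratio.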

[1] = dose: 100.0 mg/kg/injection, schedule: Q01DX001 (ip), vehicle: Klucel (hydroxypropylcellulose) (HPC)
[2] = dose: 200.0 mg/kg/injection, schedule: Q01DX001 (ip), vehicle: Klucel (hydroxypropylcellulose) (HPC)
[3] = dose: 400.0 mg/kg/injection, schedule: Q01DX001 (ip), vehicle: Klucel (hydroxypropylcellulose) (HPC)
[4] = dose: 50.0 mg/kg/injection, schedule: Q01DX009 (ip), vehicle: saline with Tween-80
[5] = dose: 200.0 mg/kg/injection, schedule: Q01DX009 (ip), vehicle: saline with Tween-80
[6] = dose: 100.0 mg/kg/injection, schedule: Q04DX002 (ip), vehicle: saline with Tween-80
[7] = dose: 200.0 mg/kg/injection, schedule: Q04DX002 (ip), vehicle: saline with Tween-80
[8] = dose: 100.0 mg/kg/injection, schedule: Q04DX003 (ip), vehicle: Klucel (hydroxypropylcellulose) (HPC)
[9] = dose: 100.0 mg/kg/injection, schedule: Q01DX009 (ip), vehicle: saline with Tween-80
[10] = dose: 100.0 mg/kg/injection, schedule: Q04DX003 (ip), vehicle: saline with Tween-80
[11] = dose: 200.0 mg/kg/injection, schedule: Q04DX003 (ip), vehicle: saline with Tween-80
[12] = dose: 400.0 mg/kg/injection, schedule: Q04DX003 (ip), vehicle: saline with Tween-80
[13] = dose: 25.0 mg/kg/injection, schedule: Q01DX009 (ip), vehicle: saline with Tween-80
[14] = dose: 100.0 mg/kg/injection, schedule: Q04DX002 (ip), vehicle: Klucel (hydroxypropylcellulose) (HPC)
[15] = dose: 200.0 mg/kg/injection, schedule: Q04DX002 (ip), vehicle: Klucel (hydroxypropylcellulose) (HPC)
[16] = dose: 400.0 mg/kg/injection, schedule: Q04DX002 (ip), vehicle: Klucel (hydroxypropylcellulose) (HPC)
[17] = dose: 100.0 mg/kg/injection, schedule: Q01DX001 (ip), vehicle: saline

Measured: T/C

N#C/C([S-])=C(/[S-])C#N.N#C/C([S-])=C(/[S-])C#N.[Co].c1ccc([P+](c2ccccc2)(c2ccccc2)c2ccccc2)cc1
inactive: dose: 75.0 mg/kg/injection, schedule: Q01DX009 (ip), vehicle: Klucel (hydroxypropylcellulose) (HPC) 121 % of control | dose: 75.0 mg/kg/injection, schedule: Q04DX003 (ip), vehicle: saline 100 % of control | dose: 150.0 mg/kg/injection, schedule: Q01DX009 (ip), vehicle: Klucel (hydroxypropylcellulose) (HPC) 110 % of control | dose: 150.0 mg/kg/injection, schedule: Q04DX003 (ip), vehicle: saline 110 % of control | dose: 300.0 mg/kg/injection, schedule: Q01DX009 (ip), vehicle: Klucel (hydroxypropylcellulose) (HPC) 103 % of control | dose: 300.0 mg/kg/injection, schedule: Q04DX003 (ip), vehicle: saline 98 % of control

COc1ccc(CN(CCc2ccc(O)cc2)C(=O)C(F)(F)F)cc1O
inactive: [1] 91 % of control | [2] 89 % of control | [3] 87 % of control

Clc1ncnc2[nH]cc(Br)c12
inactive: dose: 50.0 mg/kg/injection, schedule: Q01DX001 (ip), vehicle: carboxymethylcellulose (CMC) 98 % of control | dose: 100.0 mg/kg/injection, schedule: Q01DX001 (ip), vehicle: carboxymethylcellulose (CMC) 104 % of control | dose: 200.0 mg/kg/injection, schedule: Q01DX001 (ip), vehicle: carboxymethylcellulose (CMC) 110 % of control | dose: 400.0 mg/kg/injection, schedule: Q01DX001 (ip), vehicle: carboxymethylcellulose (CMC) 98 % of control

[NH-]c1ccccc1C(=O)O.[NH-]c1ccccc1C(=O)O.[Ni+2]
inactive: [4] 100 % of control | [5] 105 % of control

CCCCCCCCCCC1CCCCC1
inactive: dose: 50.0 mg/kg/injection, schedule: Q04DX002 (ip), vehicle: saline with Tween-80 91 % of control | [6] 91 % of control | [7] 98 % of control

CCOC(=O)NCCBr
inactive: dose: 100.0 mg/kg/injection, schedule: Q01DX009 (ip), vehicle: Klucel (hydroxypropylcellulose) (HPC) 102 % of control | [8] 101 % of control | dose: 200.0 mg/kg/injection, schedule: Q01DX009 (ip), vehicle: Klucel (hydroxypropylcellulose) (HPC) 102 % of control | dose: 200.0 mg/kg/injection, schedule: Q04DX003 (ip), vehicle: Klucel (hydroxypropylcellulose) (HPC) 106 % of control | dose: 400.0 mg/kg/injection, schedule: Q01DX009 (ip), vehicle: Klucel (hydroxypropylcellulose) (HPC) 100 % of control | dose: 400.0 mg/kg/injection, schedule: Q04DX003 (ip), vehicle: Klucel (hydroxypropylcellulose) (HPC) 94 % of control

O=S(=O)(CCO)CCS(=O)(=O)CCO
inactive: dose: 75.0 mg/kg/injection, schedule: Q01DX009 (ip), vehicle: carboxymethylcellulose (CMC) 92 % of control | dose: 150.0 mg/kg/injection, schedule: Q01DX009 (ip), vehicle: carboxymethylcellulose (CMC) 102 % of control | dose: 300.0 mg/kg/injection, schedule: Q01DX009 (ip), vehicle: carboxymethylcellulose (CMC) 92 % of control

CC(C)CC(=O)Nc1ccc(S(=O)(=O)Cl)cc1
inactive: [9] 106 % of control | [10] 92 % of control | [5] 101 % of control | [11] 86 % of control | dose: 400.0 mg/kg/injection, schedule: Q01DX009 (ip), vehicle: saline with Tween-80 94 % of control | [12] 89 % of control

NC(=O)C(O)C(O)C(O)C(O)CO (stereo not drawn)
inactive: dose: 100.0 mg/kg/injection, schedule: Q04DX002 (ip), vehicle: saline 91 % of control and 99 % of control | dose: 200.0 mg/kg/injection, schedule: Q04DX002 (ip), vehicle: saline 95 % of control and 96 % of control | dose: 400.0 mg/kg/injection, schedule: Q04DX002 (ip), vehicle: saline 95 % of control and 105 % of control

CC[N+](C)(CC)Cc1cc(C(C)=O)c(C)o1
inactive: dose: 12.5 mg/kg/injection, schedule: Q01DX009 (ip), vehicle: saline with Tween-80 90 % of control | [13] 95 % of control | [4] 93 % of control

NC(=O)N/N=C1/CCN2CCCc3cccc1c32
inactive: dose: 12.5 mg/kg/injection, schedule: Q01DX009 (ip), vehicle: Klucel (hydroxypropylcellulose) (HPC) 95 % of control | dose: 25.0 mg/kg/injection, schedule: Q01DX009 (ip), vehicle: Klucel (hydroxypropylcellulose) (HPC) 103 % of control | dose: 25.0 mg/kg/injection, schedule: Q04DX003 (ip), vehicle: Klucel (hydroxypropylcellulose) (HPC) 103 % of control | dose: 50.0 mg/kg/injection, schedule: Q01DX009 (ip), vehicle: Klucel (hydroxypropylcellulose) (HPC) 93 % of control | dose: 50.0 mg/kg/injection, schedule: Q04DX003 (ip), vehicle: Klucel (hydroxypropylcellulose) (HPC) 97 % of control | [8] 95 % of control

Nc1cc(Cl)c(Cl)cc1Cl
inactive: [10] 97 % of control | [11] 101 % of control | [12] 100 % of control

O=C(Nc1ccccc1Cl)Nc1ccccc1[N+](=O)[O-]
inactive: dose: 100.0 mg/kg/injection, schedule: Q04DX002 (ip), vehicle: saline + alcohol 111 % of control | dose: 200.0 mg/kg/injection, schedule: Q04DX002 (ip), vehicle: saline + alcohol 100 % of control | dose: 400.0 mg/kg/injection, schedule: Q04DX002 (ip), vehicle: saline + alcohol 96 % of control

O=C(O)/C(=C\c1cccnc1)NC(=O)c1ccccc1
inactive: [14] 90 % of control | [15] 101 % of control | [16] 96 % of control

CC(C)(C)c1cccc(Cl)c1O
inactive: [13] 102 % of control | [4] 93 % of control | [9] 96 % of control and 98 % of control

Cc1[nH]c2ccccc2c(=O)c1/C=N/NC(N)=S
inactive: [14] 109 % of control | [15] 91 % of control | [16] 98 % of control

CCCCCCCCCCCC(=O)N(C)CC(=O)O
inactive: [17] 96 % of control

NS(=O)(=O)c1ccc(Cl)c([N+](=O)[O-])c1
inactive: [6] 98 % of control | [7] 91 % of control | dose: 400.0 mg/kg/injection, schedule: Q04DX002 (ip), vehicle: saline with Tween-80 91 % of control

CCCCCCCCCCCCCOc1ccc2ccccc2c1
active: [1] 326 % of control | [2] 165 % of control
inactive: [3] 92 % of control

COC(=O)C1C(O)CC2CCC1[N+]2(C)C (stereo not drawn)
inactive: [17] 96 % of control | dose: 200.0 mg/kg/injection, schedule: Q01DX001 (ip), vehicle: saline 100 % of control

C(#CCN1CCCC1)CCCN1CCCC1
inactive: [13] 98 % of control | dose: 25.0 mg/kg/injection, schedule: Q04DX003 (ip), vehicle: saline with Tween-80 97 % of control | [4] 102 % of control | dose: 50.0 mg/kg/injection, schedule: Q04DX003 (ip), vehicle: saline with Tween-80 97 % of control | [9] 95 % of control | [10] 93 % of control and 98 % of control

Cc1cccc(C)c1/C=C/S(=O)(=O)c1ccccc1
inactive: dose: 100.0 mg/kg/injection, schedule: Q01DX001 (ip), vehicle: acetone 98 % of control | dose: 100.0 mg/kg/injection, schedule: Q01DX009 (ip), vehicle: saline 94 % of control | dose: 100.0 mg/kg/injection, schedule: Q04DX003 (ip), vehicle: acetone 109 % of control | dose: 200.0 mg/kg/injection, schedule: Q01DX001 (ip), vehicle: acetone 98 % of control | dose: 200.0 mg/kg/injection, schedule: Q01DX009 (ip), vehicle: saline 103 % of control | dose: 200.0 mg/kg/injection, schedule: Q04DX003 (ip), vehicle: acetone 103 % of control | dose: 400.0 mg/kg/injection, schedule: Q01DX001 (ip), vehicle: acetone 106 % of control | dose: 400.0 mg/kg/injection, schedule: Q01DX009 (ip), vehicle: saline 94 % of control | dose: 400.0 mg/kg/injection, schedule: Q04DX003 (ip), vehicle: acetone 101 % of control

CC(N=c1nc(N)ccn1C1OC(CO)C(O)C1O)C(=O)O (stereo not drawn)
inactive: dose: 200.0 mg/kg/injection, schedule: Q01DX005 (ip), vehicle: saline 120 % of control

CC(C)(C)C1=CC(=C(Cl)Cl)C=C(C(C)(C)C)C1=O
inactive: dose: 100.0 mg/kg/injection, schedule: Q04DX003 (ip), vehicle: other 97 % of control | dose: 200.0 mg/kg/injection, schedule: Q04DX003 (ip), vehicle: other 98 % of control | dose: 400.0 mg/kg/injection, schedule: Q04DX003 (ip), vehicle: other 93 % of control
